Test results published in ChEMBL document CHEMBL1817623, “Sesterterpenes from the tropical sponge Coscinoderma sp” (J Nat Prod, 2011).
Values after ≈ are worked out from the molar mass of the structure shown.

Columns and labels:
Sortase A = biological target: T1, Sortase A (Staphylococcus aureus, UniProt Q9S446); experiment: Inhibition of recombinant Staphylococcus aureus ATCC 6538p sortase lacking the N-terminal membrane anchor domain expressed in Escherichia coli cells TOP10 using Dabcyl-QALPETGEE-Edans substrate measured after 1 hr by fluorescence S13 spectrophotometry
T1 sequence (Q9S446 whole entry): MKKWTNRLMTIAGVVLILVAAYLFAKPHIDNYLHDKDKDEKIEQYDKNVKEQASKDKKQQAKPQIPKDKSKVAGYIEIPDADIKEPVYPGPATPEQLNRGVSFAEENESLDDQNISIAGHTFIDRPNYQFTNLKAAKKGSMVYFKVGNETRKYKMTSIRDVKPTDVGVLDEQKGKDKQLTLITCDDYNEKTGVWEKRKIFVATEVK

Aspergillus fumigatus = experiment: Antimicrobial activity against Aspergillus fumigatus HIC 6094; format: functional
Micrococcus luteus = experiment: Antimicrobial activity against Micrococcus luteus IFO 12708; format: functional
Escherichia coli = experiment: Antimicrobial activity against Escherichia coli ATCC 35270; format: functional
Trichophyton rubrum = experiment: Antimicrobial activity against Trichophyton rubrum IFO 9185; format: functional
K562 = experiment: Cytotoxicity against human K562 cells; format: functional; settings: read-out: LC50 (the source's name)
Bacillus subtilis = experiment: Antimicrobial activity against Bacillus subtilis ATCC 6633; format: functional
Salmonella typhimurium = experiment: Antimicrobial activity against Salmonella Typhimurium ATCC 14028; format: functional, Salmonella enterica subsp. enterica serovar Typhimurium; settings: Salmonella enterica
[1] = biological target: Sodium/potassium-transporting ATPase; experiment: Inhibition of human Na(+)/K(+) ATPase assessed as reduction in ouabain-sensitive and K(+)-dependent cleavage of fluorescent pseudosubstrate 3-O-methylfluorescein phosphate by fluorometric method; format: protein-complex assay
[2] = system: Trichophyton mentagrophytes; experiment: Antimicrobial activity against Trichophyton mentagrophytes IFO 40996; format: functional
Staphylococcus aureus = experiment: Antimicrobial activity against Staphylococcus aureus ATCC 6538p; format: functional
Proteus vulgaris = experiment: Antimicrobial activity against Proteus vulgaris ATCC 3851; format: functional
Candida albicans = experiment: Antimicrobial activity against Candida albicans ATCC 10231; format: functional
Isocitrate lyase = Isocitrate lyase (Candida albicans, UniProt Q9P8Q7); experiment: Inhibition of Candida albicans isocitrate lyase
Sequence of Isocitrate lyase (Q9P8Q7 whole entry): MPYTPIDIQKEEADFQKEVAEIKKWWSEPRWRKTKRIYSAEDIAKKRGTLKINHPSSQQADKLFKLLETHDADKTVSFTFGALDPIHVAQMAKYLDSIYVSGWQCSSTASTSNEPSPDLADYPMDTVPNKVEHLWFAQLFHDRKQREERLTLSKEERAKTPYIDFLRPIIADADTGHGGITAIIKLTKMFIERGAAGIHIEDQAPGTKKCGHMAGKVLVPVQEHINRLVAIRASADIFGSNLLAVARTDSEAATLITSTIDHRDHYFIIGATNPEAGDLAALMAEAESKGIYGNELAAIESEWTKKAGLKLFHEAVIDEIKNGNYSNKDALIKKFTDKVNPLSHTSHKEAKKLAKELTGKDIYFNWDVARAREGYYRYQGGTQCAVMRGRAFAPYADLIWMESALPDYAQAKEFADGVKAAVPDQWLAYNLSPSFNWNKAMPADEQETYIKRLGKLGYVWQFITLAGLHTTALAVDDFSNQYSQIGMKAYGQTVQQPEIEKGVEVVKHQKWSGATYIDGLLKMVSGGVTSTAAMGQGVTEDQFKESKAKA

SMILES | IC50 (Sortase A) | MIC (Aspergillus fumigatus) | MIC (Micrococcus luteus) | MIC (Escherichia coli) | MIC (Trichophyton rubrum) | CC50 (K562) | MIC (Bacillus subtilis) | MIC (Salmonella typhimurium) | IC50 [1] | MIC [2] | MIC (Staphylococcus aureus) | MIC (Proteus vulgaris) | MIC (Candida albicans) | IC50 (Isocitrate lyase)
CC1(C)CCC[C@]2(C)[C@H]3CC/C(=C\OS(=O)(=O)[O-])[C@H](CCC4=CC(=O)O[C@@H]4O)[C@@]3(C)CC[C@@H]12.[Na+] | > 200 µM | > 100 µg/mL | > 100 µg/mL | > 100 µg/mL | > 100 µg/mL | 59 µM | > 100 µg/mL | > 100 µg/mL | 5 µM | > 100 µg/mL | > 100 µg/mL | > 100 µg/mL | > 100 µg/mL | 
COc1cccc2c1C(=O)c1c(O)c3c(c(O)c1C2=O)C[C@@](O)(C(=O)CO)C[C@@H]3O[C@H]1C[C@H](N)[C@H](O)[C@H](C)O1 [DOXORUBICIN] |  |  |  |  |  | 13 µM |  |  |  |  |  |  |  | 
C[C@@H]1[C@H](O)[C@@H](C)/C=C/C=C/C=C/C=C/C=C/C=C/C=C/[C@H](O[C@@H]2O[C@H](C)[C@@H](O)[C@H](N)[C@@H]2O)C[C@@H]2O[C@](O)(C[C@@H](O)C[C@@H](O)[C@H](O)CC[C@@H](O)C[C@@H](O)CC(=O)O[C@H]1C)C[C@H](O)[C@H]2C(=O)O [AMPHOTERICIN B] |  | 3.13 µg/mL (≈ 3.39 µM) |  |  | 3.13 µg/mL (≈ 3.39 µM) |  |  |  |  | 3.13 µg/mL (≈ 3.39 µM) |  |  | 0.78 µg/mL (≈ 0.844 µM) | 
O=C(O)CC[N+](=O)[O-] |  |  |  |  |  |  |  |  |  |  |  |  |  | 9 µM
CO[C@H]1C=C(CC[C@H]2/C(=C/OS(=O)(=O)[O-])CC[C@H]3[C@]2(C)CC[C@H]2C(C)(C)CCC[C@]32C)C(=O)O1.[Na+] | > 200 µM | > 100 µg/mL | > 100 µg/mL | > 100 µg/mL | > 100 µg/mL | 45 µM | > 100 µg/mL | > 100 µg/mL | 17 µM | > 100 µg/mL | > 100 µg/mL | > 100 µg/mL | > 100 µg/mL | 165 µM
CC1(C)CCC[C@]2(C)[C@H]3CC/C(=C\OS(=O)(=O)[O-])[C@H](CCc4ccoc4)[C@@]3(C)CC[C@@H]12.C[N+](C)=C(N)N [SUVANINE] | > 200 µM | > 100 µg/mL | > 100 µg/mL | > 100 µg/mL | > 100 µg/mL | > 200 µM | 1.56 µg/mL | 50 µg/mL | 8 µM | > 100 µg/mL | 100 µg/mL | > 100 µg/mL | > 100 µg/mL | 17 µM
CC1(C)CCC[C@]2(C)[C@H]3CC/C(=C\OS(=O)(=O)[O-])[C@H](CCC4=CC(=O)OC4)[C@@]3(C)CC[C@@H]12.[Na+] | > 200 µM | > 100 µg/mL | > 100 µg/mL | > 100 µg/mL | > 100 µg/mL | 56 µM | > 100 µg/mL | > 100 µg/mL | 19 µM | > 100 µg/mL | > 100 µg/mL | > 100 µg/mL | > 100 µg/mL | 150 µM
CC1(C)CCC[C@]2(C)[C@H]3CC/C(=C\OS(=O)(=O)[O-])[C@H](CCc4ccoc4)[C@@]3(C)CC[C@@H]12.[Na+] [SUVANINE'S SODIUM SALT] | > 200 µM | > 100 µg/mL | 25 µg/mL | > 100 µg/mL | > 100 µg/mL | 16 µM | 1.56 µg/mL | 50 µg/mL | 9 µM | > 100 µg/mL | 25 µg/mL | 25 µg/mL | > 100 µg/mL | 5 µM
CC1=CC[C@H]2C(C)(C)CCC[C@]2(C)[C@H]1C/C=C(/C)CCC/C(C)=C/Cc1cc(O)ccc1O [COSCINOQUINOL] | > 200 µM | > 100 µg/mL | 25 µg/mL (≈ 55.5 µM) | > 100 µg/mL | > 100 µg/mL | 8 µM | 3.25 µg/mL (≈ 7.21 µM) | 25 µg/mL (≈ 55.5 µM) | 44 µM | > 100 µg/mL | > 100 µg/mL | 6.25 µg/mL (≈ 13.9 µM) | > 100 µg/mL | > 200 µM
CC1=CC[C@H]2C(C)(C)CCC[C@]2(C)[C@H]1C[C@@H](OS(=O)(=O)[O-])[C@H](C)CCC/C(C)=C/Cc1cc(O)ccc1O.[Na+] [HALISULFATE 1] | 36 µM | > 100 µg/mL |  | > 100 µg/mL | > 100 µg/mL | > 200 µM | 3.13 µg/mL |  | 3 µM | > 100 µg/mL | 50 µg/mL |  | > 100 µg/mL | 19 µM
CC1=CC[C@H]2C(C)(C)CCC[C@]2(C)[C@H]1C[C@@H](OS(=O)(=O)[O-])[C@H](C)CCC/C(C)=C\Cc1cc(O)ccc1O.[Na+] | 100 µM | > 100 µg/mL | > 100 µg/mL | > 100 µg/mL | > 100 µg/mL | > 200 µM | > 100 µg/mL | > 100 µg/mL | 5 µM | > 100 µg/mL | > 100 µg/mL | > 100 µg/mL | > 100 µg/mL | 52 µM
CC1=CC[C@H]2C(C)(C)CCC[C@]2(C)[C@H]1C/C=C(\C)CCC/C(C)=C/Cc1cc(O)ccc1O | > 200 µM | > 100 µg/mL | > 100 µg/mL | > 100 µg/mL | > 100 µg/mL | 8 µM | > 100 µg/mL | > 100 µg/mL | 117 µM | > 100 µg/mL | > 100 µg/mL | > 100 µg/mL | > 100 µg/mL | > 200 µM
CC1=CCC[C@@H](C)[C@]1(C)CC/C(C)=C/CCC(CCCc1ccoc1)COS(=O)(=O)[O-].[Na+] (stereo partly drawn) [HALISULFATE 2] | > 200 µM | > 100 µg/mL | > 100 µg/mL | > 100 µg/mL | > 100 µg/mL | > 200 µM | 6.25 µg/mL | > 100 µg/mL | 5 µM | > 100 µg/mL | > 100 µg/mL | 25 µg/mL | > 100 µg/mL | 24 µM
CC1(C)S[C@@H]2[C@H](NC(=O)[C@H](N)c3ccccc3)C(=O)N2[C@H]1C(=O)O [AMPICILLIN] |  |  | 0.39 µg/mL (≈ 1.12 µM) | 6.25 µg/mL (≈ 17.9 µM) |  |  | 0.39 µg/mL (≈ 1.12 µM) | 0.39 µg/mL (≈ 1.12 µM) |  |  | 1.56 µg/mL (≈ 4.46 µM) | 0.39 µg/mL (≈ 1.12 µM) |  | 
C=C1CC[C@H]2C(C)(C)CCC[C@]2(C)[C@H]1C[C@@H](OS(=O)(=O)[O-])[C@H](C)CCC/C(C)=C/Cc1cc(O)ccc1O.[Na+] | 98 µM | > 100 µg/mL |  | > 100 µg/mL | > 100 µg/mL | > 200 µM |  |  | 4 µM | > 100 µg/mL |  |  | > 100 µg/mL | 45 µM
CO[C@H]1C=C(CC[C@H]2/C(=C/OS(=O)(=O)[O-])CC[C@H]3[C@]2(C)CC[C@H]2C(C)(C)CCC[C@]32C)[C@@H](OC)O1.[Na+] | > 200 µM | > 100 µg/mL | > 100 µg/mL | > 100 µg/mL | > 100 µg/mL | 49 µM | > 100 µg/mL | > 100 µg/mL | 14 µM | > 100 µg/mL | > 100 µg/mL | > 100 µg/mL | > 100 µg/mL | 87 µM
CO[C@@H]1O[C@H](OC)[C@](O)(CC[C@H]2/C(=C/OS(=O)(=O)[O-])CC[C@H]3[C@]2(C)CC[C@H]2C(C)(C)CCC[C@]32C)[C@H]1O.[Na+] | > 200 µM | > 100 µg/mL | > 100 µg/mL | > 100 µg/mL | > 100 µg/mL | 15 µM | > 100 µg/mL | > 100 µg/mL | 6 µM | > 100 µg/mL | > 100 µg/mL | > 100 µg/mL | > 100 µg/mL | 75 µM
CC1(C)CCC[C@]2(C)[C@H]3CC/C(=C\OS(=O)(=O)[O-])[C@H](CCC4=CCNC4=O)[C@@]3(C)CC[C@@H]12.[Na+] | > 200 µM | > 100 µg/mL | > 100 µg/mL | > 100 µg/mL | > 100 µg/mL | 22 µM | > 100 µg/mL | > 100 µg/mL | 18 µM | > 100 µg/mL | > 100 µg/mL | > 100 µg/mL | > 100 µg/mL | 62 µM
CO[C@@H]1C=C(CC[C@H]2/C(=C/OS(=O)(=O)[O-])CC[C@H]3[C@]2(C)CC[C@H]2C(C)(C)CCC[C@]32C)C(=O)O1.[Na+] | > 200 µM | > 100 µg/mL | > 100 µg/mL | > 100 µg/mL | > 100 µg/mL | 16 µM | > 100 µg/mL | > 100 µg/mL | 6 µM | > 100 µg/mL | > 100 µg/mL | > 100 µg/mL | > 100 µg/mL | 64 µM
